For 32 compounds, IC50 results are on record in patent US12246008B2, “4-amino or 4-alkoxy-substituted aryl sulfonamide compounds with selective activity in voltage-gated sodium channels” (Merck Sharp & Dohme LLC, priority 2018, dated 2025).

For test [1], the target named is T1, human Nav1.6 channels stably expressed in HEK 293 cells (Homo sapiens, UniProt Q9UQD0).
T1 construct: expressed in transfected cells; host or cells: HEK 293
In words: Qube automated patch-clamp assay, inhibition of sodium current. Format: cell-based. Conditions: holding potential −65 mV; max concentration tested 33750 nM. The method, then: (§1) Qube™ Experimental Procedure:
(§2) Compounds were tested on human Nav1.7 and Nav1.6 channels stably expressed in HEK 293 cells. […] Cells were sealed on a planar substrate using the multihole technology. Cells expressing human Nav1.7 channels were held at −75 mV or −80 mV. Cells expressing human Nav1.6 channels were held at −65 mV. A train of 6 consecutive test pulses to −10 mV, preceded by 8 s prepulses to −115 mV, was applied at a frequency of 0.1 Hz before and after compound addition. Cells in each Qchip well were incubated in compound for 5 minutes before measuring inhibition. Peak currents were measured in control conditions and after compound addition. The following recording solutions were used (mM). External Nav1.6: 150 NaCl, 2 CaCl2), 5 KCl, 1 Mg Cl2, 10 HEPES, 12 Dextrose; external Nav1.7: 40 NaCl, 120 NMDG, 1 KCl, 0.5 MgCl2, 5 HEPES, 2.7 CaCl2); internal: 120 CsF, 30 CsCl, 10 EGTA, 5 HEPES, 5 NaF, 2 MgCl2. Compounds were prepared as 10 mM stock solutions in DMSO. 10 point compound titrations were generated using the Echo acoustic liquid handling instrument and glass coated 384 well plates. The final DMSO concentration in the assay was 0.3%. For all electrophysiology experiments, offline analysis was used to determine percent inhibition as a function of drug concentration. IC50 values were determined by fitting to the Hill equation.
(§3) The various compounds in EXAMPLES 1 through 43 and TABLE 2 exemplified above were assayed for activity and selectivity using the foregoing Qube® technique. The results are reported in TABLE 3 in a format expressing the identification of the compound with reference EXAMPLE followed by the observed potency in nM for NaV1.7, NaV1.6 and NaV1.5. NA signifies not applicable and the max concentration tested is 33750 nM.
(The patch-clamp technique gives a direct electrical read-out from membranes.)

The target in test [2] is T2, human Nav1.7 channels stably expressed in HEK 293 cells (Homo sapiens, UniProt Q15858).
T2 construct: expressed in transfected cells; host or cells: HEK 293
T2 sequence (Q15858 whole entry): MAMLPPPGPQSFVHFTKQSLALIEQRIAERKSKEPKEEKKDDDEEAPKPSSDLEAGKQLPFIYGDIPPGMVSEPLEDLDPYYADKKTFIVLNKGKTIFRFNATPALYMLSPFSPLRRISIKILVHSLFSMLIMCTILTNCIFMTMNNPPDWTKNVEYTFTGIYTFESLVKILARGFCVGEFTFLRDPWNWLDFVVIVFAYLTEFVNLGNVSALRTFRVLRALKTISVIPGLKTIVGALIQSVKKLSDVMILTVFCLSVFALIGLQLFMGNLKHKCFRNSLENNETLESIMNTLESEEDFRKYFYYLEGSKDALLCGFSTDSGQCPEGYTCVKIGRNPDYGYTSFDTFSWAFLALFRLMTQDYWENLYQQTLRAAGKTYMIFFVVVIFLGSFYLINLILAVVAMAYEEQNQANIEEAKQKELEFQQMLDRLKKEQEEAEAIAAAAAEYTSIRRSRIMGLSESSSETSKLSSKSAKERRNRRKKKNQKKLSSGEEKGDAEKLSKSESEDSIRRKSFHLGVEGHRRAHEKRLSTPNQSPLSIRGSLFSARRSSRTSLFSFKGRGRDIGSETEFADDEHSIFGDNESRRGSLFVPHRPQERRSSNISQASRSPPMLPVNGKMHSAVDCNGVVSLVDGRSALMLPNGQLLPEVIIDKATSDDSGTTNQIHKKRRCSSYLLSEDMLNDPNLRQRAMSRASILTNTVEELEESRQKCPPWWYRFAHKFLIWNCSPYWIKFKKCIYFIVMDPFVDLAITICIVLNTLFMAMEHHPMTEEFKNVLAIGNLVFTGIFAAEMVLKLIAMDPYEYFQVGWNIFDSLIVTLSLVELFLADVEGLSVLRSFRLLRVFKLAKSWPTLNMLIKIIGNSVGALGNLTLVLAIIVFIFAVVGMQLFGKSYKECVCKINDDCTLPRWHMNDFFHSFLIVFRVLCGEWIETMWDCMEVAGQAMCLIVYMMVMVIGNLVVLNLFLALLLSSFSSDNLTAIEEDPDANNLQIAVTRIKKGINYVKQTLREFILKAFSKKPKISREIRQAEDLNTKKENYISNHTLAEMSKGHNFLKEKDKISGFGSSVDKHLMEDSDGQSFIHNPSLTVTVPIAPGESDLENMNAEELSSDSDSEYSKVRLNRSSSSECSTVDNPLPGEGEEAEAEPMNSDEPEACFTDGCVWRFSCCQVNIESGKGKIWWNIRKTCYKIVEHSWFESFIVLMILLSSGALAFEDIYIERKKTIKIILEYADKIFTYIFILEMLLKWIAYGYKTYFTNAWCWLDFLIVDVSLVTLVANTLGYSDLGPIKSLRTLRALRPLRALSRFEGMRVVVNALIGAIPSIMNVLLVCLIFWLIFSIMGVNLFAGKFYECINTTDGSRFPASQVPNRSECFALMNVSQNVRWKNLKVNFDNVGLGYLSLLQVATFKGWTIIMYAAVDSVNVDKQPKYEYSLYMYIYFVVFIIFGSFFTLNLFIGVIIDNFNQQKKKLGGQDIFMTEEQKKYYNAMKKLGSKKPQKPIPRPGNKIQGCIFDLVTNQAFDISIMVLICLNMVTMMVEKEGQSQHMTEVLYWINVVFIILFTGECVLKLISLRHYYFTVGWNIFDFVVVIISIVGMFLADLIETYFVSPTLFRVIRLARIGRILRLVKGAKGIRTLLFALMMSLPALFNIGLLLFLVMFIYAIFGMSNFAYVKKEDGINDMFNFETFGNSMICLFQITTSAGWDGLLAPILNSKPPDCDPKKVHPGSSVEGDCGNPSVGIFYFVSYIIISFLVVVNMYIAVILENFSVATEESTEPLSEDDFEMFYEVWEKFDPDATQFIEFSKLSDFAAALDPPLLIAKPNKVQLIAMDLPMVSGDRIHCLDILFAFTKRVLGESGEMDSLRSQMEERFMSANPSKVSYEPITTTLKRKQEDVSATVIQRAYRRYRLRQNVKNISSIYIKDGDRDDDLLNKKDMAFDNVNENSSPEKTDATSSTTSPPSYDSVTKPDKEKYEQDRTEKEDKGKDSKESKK
The description is as above. The test is classed as cell-based. Conditions: max concentration tested 33750 nM, read-out: NaV1.7 (nM). On the procedure:
as §1, §2, §3

Setting [3] is: holding potential −80 mV, −80 mV.
The mark [4] stands for this setting: holding potential −75 mV, −75 mV.

The structures appear in SMILES notation. Where two headings read alike, the source gives them in different places.

T1 sequence (Q9UQD0 whole entry): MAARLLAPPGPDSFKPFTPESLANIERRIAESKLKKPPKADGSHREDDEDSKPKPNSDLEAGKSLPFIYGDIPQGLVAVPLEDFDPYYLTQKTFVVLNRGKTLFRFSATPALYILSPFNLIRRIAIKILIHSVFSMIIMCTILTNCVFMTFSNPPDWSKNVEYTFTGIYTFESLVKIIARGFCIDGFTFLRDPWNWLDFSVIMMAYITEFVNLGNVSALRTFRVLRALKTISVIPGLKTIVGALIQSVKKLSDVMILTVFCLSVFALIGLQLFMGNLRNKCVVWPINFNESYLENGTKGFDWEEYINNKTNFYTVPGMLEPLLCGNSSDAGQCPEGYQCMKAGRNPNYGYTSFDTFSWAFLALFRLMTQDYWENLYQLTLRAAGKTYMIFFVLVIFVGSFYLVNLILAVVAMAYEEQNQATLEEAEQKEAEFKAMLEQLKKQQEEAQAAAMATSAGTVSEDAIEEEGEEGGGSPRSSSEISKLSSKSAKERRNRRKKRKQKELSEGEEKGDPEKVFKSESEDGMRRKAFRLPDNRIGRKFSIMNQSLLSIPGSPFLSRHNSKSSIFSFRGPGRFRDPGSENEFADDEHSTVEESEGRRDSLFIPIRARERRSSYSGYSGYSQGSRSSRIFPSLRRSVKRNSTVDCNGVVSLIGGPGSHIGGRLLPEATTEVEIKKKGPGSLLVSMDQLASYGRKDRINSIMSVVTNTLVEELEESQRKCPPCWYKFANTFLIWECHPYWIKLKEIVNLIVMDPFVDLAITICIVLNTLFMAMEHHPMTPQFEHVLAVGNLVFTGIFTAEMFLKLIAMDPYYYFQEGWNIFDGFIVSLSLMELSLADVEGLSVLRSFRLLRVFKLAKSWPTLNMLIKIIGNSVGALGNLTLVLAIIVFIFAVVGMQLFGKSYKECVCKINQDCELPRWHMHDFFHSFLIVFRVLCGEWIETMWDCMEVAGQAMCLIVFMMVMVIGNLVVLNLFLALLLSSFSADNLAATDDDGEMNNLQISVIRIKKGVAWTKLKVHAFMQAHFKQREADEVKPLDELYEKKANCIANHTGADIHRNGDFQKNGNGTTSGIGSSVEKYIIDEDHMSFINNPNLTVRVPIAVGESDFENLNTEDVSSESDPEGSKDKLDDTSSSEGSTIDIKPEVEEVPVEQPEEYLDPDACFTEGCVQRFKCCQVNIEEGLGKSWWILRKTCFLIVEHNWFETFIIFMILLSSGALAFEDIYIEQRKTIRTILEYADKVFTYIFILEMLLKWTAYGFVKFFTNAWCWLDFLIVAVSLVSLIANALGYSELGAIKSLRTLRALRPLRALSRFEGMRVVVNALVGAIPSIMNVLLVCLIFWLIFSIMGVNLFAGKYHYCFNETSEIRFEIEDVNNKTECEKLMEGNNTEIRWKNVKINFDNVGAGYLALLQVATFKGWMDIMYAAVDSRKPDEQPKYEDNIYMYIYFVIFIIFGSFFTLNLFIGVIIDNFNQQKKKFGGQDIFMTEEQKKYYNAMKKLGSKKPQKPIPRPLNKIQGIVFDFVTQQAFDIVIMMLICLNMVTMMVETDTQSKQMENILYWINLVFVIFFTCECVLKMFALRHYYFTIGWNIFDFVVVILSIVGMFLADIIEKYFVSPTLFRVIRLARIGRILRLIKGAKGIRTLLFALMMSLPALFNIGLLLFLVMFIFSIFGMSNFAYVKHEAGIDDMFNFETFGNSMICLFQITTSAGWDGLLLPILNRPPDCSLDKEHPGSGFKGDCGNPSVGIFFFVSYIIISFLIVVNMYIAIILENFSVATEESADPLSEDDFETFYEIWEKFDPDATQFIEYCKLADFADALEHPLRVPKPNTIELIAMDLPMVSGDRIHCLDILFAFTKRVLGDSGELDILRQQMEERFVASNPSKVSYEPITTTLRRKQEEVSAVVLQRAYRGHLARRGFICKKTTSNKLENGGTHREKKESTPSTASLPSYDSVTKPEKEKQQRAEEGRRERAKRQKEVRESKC

With `C[C@@H](N)C(CNc1cc(F)c(S(=O)(=O)Nc2ncns2)cc1F)CC1CCCCC1CCN` (single isomer, unassigned) [Example 64], the IC50 in test [1] was above 33800 nM; in test [2] (setting [3]), 14600 nM.

As to `COC(CN)C[C@@H](CNc1cc(F)c(S(=O)(=O)Nc2ncns2)cc1Br)[C@@H](C)N` (single isomer, unassigned) [Example 81], the values for the IC50 in test [1] and in test [2] (setting [3]) were above 33800 nM and 87 nM, respectively.

Regarding `Cc1csc(NS(=O)(=O)c2cc(Cl)c(NC[C@H](CC(C)(C)N)[C@@H](C)N)cc2F)n1` [Example 106], the IC50 in test [1] was above 33800 nM; in test [2] (setting [4]) it was 133 nM.

With `C[C@@H](N)[C@H](CNc1cc(F)c(S(=O)(=O)Nc2cccc(F)n2)cc1Cl)CC1(N)CCC1` [Example 105], the results for the IC50 in test [1] and in test [2] (setting [4]) were 8340 nM and 14 nM, respectively.

In the case of `C[C@@H](N)C(CNc1cc(F)c(S(=O)(=O)Nc2ncns2)cc1F)CC1(C)CCC1CN` (single isomer, unassigned) [Example 55], the IC50 was above 33800 nM in test [1] and 1060 nM in test [2] (setting [3]).

Take `C[C@@H](N)C(CNc1ncc(S(=O)(=O)Nc2ncc(F)s2)cc1Cl)CC1(CCN)CCC1` (single isomer, unassigned) [Example 8]: the IC50 in test [1] was above 33800 nM; in test [2] (setting [4]), 18 nM.

With `Cc1cc(S(=O)(=O)Nc2ncc(F)s2)c(F)cc1NC[C@H](CC(C)(C)N)[C@@H](C)N` [Example 107], the IC50 worked out at 3590 nM in test [1] and 17 nM in test [2] (setting [4]).

For `C[C@@H](N)[C@@H](CC(C)(C)CCN)C1CCc2cc(S(=O)(=O)Nc3ncns3)c(F)cc2O1` (single isomer, unassigned) [Example 41], the IC50 in test [2] (setting [3]) was 13700 nM.

On to `C[C@@H](N)C(CNc1cc(F)c(S(=O)(=O)Nc2ncns2)cc1F)CC1CCCC12CNC2` (single isomer, unassigned) [Example 24], for which the IC50 in test [2] (setting [3]) is above 33800 nM.

In the case of `C[C@@H](N)[C@H](CNc1ccc(S(=O)(=O)Nc2ncns2)c(F)c1)CC(CCN)C1CC1` (single isomer, unassigned) [Example 20], the IC50 in test [2] (setting [3]) was 1390 nM.

Regarding `C[C@@H](N)C(CNc1ccc(S(=O)(=O)Nc2ncns2)cc1F)CC1(N)CCC1` (single isomer, unassigned) [Example 89], the IC50 in test [1] is above 33800 nM; in test [2] (setting [4]) it was 274 nM.

`CC(C)NCC(CNc1cc(F)c(S(=O)(=O)Nc2ncns2)cc1Cl)[C@@H](C)N` (single isomer, unassigned) [Example 37]: the IC50 in test [1] was above 33800 nM; in test [2] (setting [4]), 6760 nM.

On to `C[C@@H](N)C(COc1ncc(S(=O)(=O)Nc2ncc(F)s2)cc1Cl)CC1(CCN)CCC1` (single isomer, unassigned) [Example 6], for which the IC50 is above 33800 nM in test [1] and 93 nM in test [2] (setting [4]).

As for `C[C@@H](N)[C@H](CNc1ncc(S(=O)(=O)Nc2ncns2)cc1C(F)(F)F)CC(C)(C)CCN` [Example 13, 6-(((S)-6-amino-2-((R)-1-aminoethyl)-4,4-dimethylhexyl)amino)-N-(1,2,4-thiadiazol-5-yl)-5-(trifluoromethyl)pyridine-3-sulfonamide], the results for the IC50 in test [1] and in test [2] (setting [4]) were above 33800 nM and 230 nM, respectively.

For `CC(C)C(N)CC(CNc1cc(F)c(S(=O)(=O)Nc2ncns2)cc1Br)[C@@H](C)N` (single isomer, unassigned) [Example 108], the values for the IC50 in test [1] and in test [2] (setting [4]) were above 33800 nM and 17 nM, respectively.

As for `C[C@@H](N)[C@H](CNc1cc(F)c(S(=O)(=O)Nc2ncns2)cc1Cl)C[C@@H]1C[C@@H]1CN` (single isomer, unassigned) [Example 33], the IC50 is above 33800 nM in test [1] and 156 nM in test [2] (setting [4]).

For `C[C@@H](N)C(CNc1cc(F)c(S(=O)(=O)Nc2ncns2)cc1F)C[C@@]1(C)CCC[C@@H]1CN` (single isomer, unassigned) [Example 96], the IC50 in test [1] is above 33800 nM; in test [2] (setting [4]) it was 618 nM.

Turning to `C[C@@H](N)C(CNc1cc(F)c(S(=O)(=O)Nc2ncns2)cc1F)CC1CC(C)(C)CN1` (single isomer, unassigned) [Example 14], in test [2] (setting [3]), the IC50 is above 33800 nM.

With `C[C@@H](N)C(CNc1cc(F)c(S(=O)(=O)Nc2ncns2)cc1F)C[C@]1(C)CCC[C@H]1CN` (single isomer, unassigned) [Example 98], the IC50 in test [1] was above 33800 nM; in test [2] (setting [3]), 2360 nM.

For the compound `C[C@@H](N)C(COc1cc(F)c(S(=O)(=O)Nc2ncns2)cc1F)CC1(CCN)CCC1` (single isomer, unassigned) [Example 95], the IC50 in test [1] was above 33800 nM; in test [2] (setting [3]) it was 4130 nM.

In the case of `C[C@@H](N)C(CNc1cc(F)c(S(=O)(=O)Nc2ncns2)cc1Cl)CC1COCCN1` (single isomer, unassigned) [Example 101], the results for the IC50 in test [1] and in test [2] (setting [4]) were above 33800 nM and 84 nM, respectively.

Turning to `C[C@@H](N)C(CNc1cc(F)c(S(=O)(=O)Nc2ncns2)cc1F)C[C@]1(C)CCC[C@H]1CN` (single isomer, unassigned) [Example 99], the IC50 in test [1] was above 33800 nM; in test [2] (setting [3]), 450 nM.

As for `C[C@@H](N)C(CNc1cc(F)c(S(=O)(=O)Nc2ncns2)cc1F)CC1(C)CCC1CN` (single isomer, unassigned) [Example 52], the figures for the IC50 in test [1] and in test [2] (setting [3]) were above 33800 nM and 12300 nM, respectively.

In the case of `C[C@@H](N)C(CNc1cc(F)c(S(=O)(=O)Nc2ncns2)cc1Cl)CC1COCCN1` (single isomer, unassigned) [Example 104], the IC50 in test [1] was above 33800 nM; in test [2] (setting [4]) it was 305 nM.

Take `C[C@@H](N)C(CNc1cc(F)c(S(=O)(=O)Nc2ncns2)cc1F)CC1CNCC1(C)C` (single isomer, unassigned) [Example 76]: the results for the IC50 in test [1] and in test [2] (setting [3]) were above 33800 nM and 328 nM, respectively.

On to `C[C@@H](N)C(CNc1cc(F)c(S(=O)(=O)Nc2ncns2)cc1F)CC1CCCCC1CCN` (single isomer, unassigned) [Example 66], for which the IC50 in test [1] is above 33800 nM; in test [2] (setting [3]), 12600 nM.

Consider `C[C@@H](N)C(CNc1cc(F)c(S(=O)(=O)Nc2ncns2)cc1Br)CC1(CCN)CC(F)(F)C1` (single isomer, unassigned) [Example 56], for which the IC50 in test [2] (setting [3]) was above 33800 nM.

`C[C@@H](N)C(CNc1cc(F)c(S(=O)(=O)Nc2ncns2)cc1F)CC1CCCCC1CCN` (single isomer, unassigned) [Example 67]: the IC50 in test [1] and in test [2] (setting [3]) was above 33800 nM each time.

Regarding `C[C@@H](N)[C@H](CNc1ncc(S(=O)(=O)Nc2ncns2)cc1C#N)CC(C)(C)CCN` [Example 31, 6-(((S)-6-amino-2-((R)-1-aminoethyl)-4,4-dimethylhexyl)amino)-5-cyano-N-(1,2,4-thiadiazol-5-yl)pyridine-3-sulfonamide], the IC50 in test [1] is above 33800 nM; in test [2] (setting [4]), 205 nM.

For the compound `CC[C@@H](N)C(CNc1cc(F)c(S(=O)(=O)Nc2ncns2)c(F)c1F)CC1(CCN)CCC1` (single isomer, unassigned) [Example 21], the IC50 in test [2] (setting [3]) was determined as 916 nM.

As for `C[C@@H](N)[C@H](CNc1cc(F)c(S(=O)(=O)Nc2ncns2)cc1Cl)CC(N)C(F)(F)F` (single isomer, unassigned) [Example 1], the IC50 in test [1] amounted to 20400 nM; in test [2] (setting [4]) it was 203 nM.

Consider `COC(CN)C[C@@H](CNc1cc(F)c(S(=O)(=O)Nc2ncns2)cc1Br)[C@@H](C)N` (single isomer, unassigned) [Example 82], for which the IC50 in test [2] (setting [3]) was 1760 nM.
